Measurements taken from patent publication US9969766B2, “20(R)-ginsenoside Rg3 polyacylated derivatives, preparation and application thereof” (priority 2014, dated 2018).

Tested on: human lung cancer A549 cells
Test: Human lung cancer A549 (subcutaneous inoculation) metastasis model
Conditions: po × 14bid

`CC(=O)OC[C@H]1O[C@@H](OC2CC[C@]3(C)C(CC[C@@]4(C)C3C[C@H](OC(C)=O)C3C([C@@](C)(O)CCC=C(C)C)CC[C@@]34C)C2(C)C)[C@H](OC2O[C@H](COC(C)=O)[C@@H](OC(C)=O)[C@H](OC(C)=O)[C@H]2OC(C)=O)[C@@H](OC(C)=O)[C@@H]1OC(C)=O` (stereo partly drawn) [Rg3-octo-acetate, 20 (R)-ginsenoside Rg3 octaacetate] was tested, and the Anti-metastasis rate % (0.012 mg/kg/d) was 49.91%, the “Lung clone numbers (mice) X ± SD” value (0.012 mg/kg/d) was 0.96 ± 0.12 and the Anti-metastasis rate % (0.06 mg/kg/d) was 57.90%. For the same compound, the “Lung clone numbers (mice) X ± SD” value (0.06 mg/kg/d) was 0.81 ± 0.15, the Anti-metastasis rate % (0.3 mg/kg/d) was 68.52% and the “Lung clone numbers (mice) X ± SD” value (0.3 mg/kg/d) was 0.84 ± 0.13.
